According to patent publication US11187690B2, “Synthetic receptors for hydrosulfide” (University of Oregon, priority 2016, dated 2021):

Columns and labels:
[1] = 1H NMR titration with NBu4SH (HS^− binding); settings: 10% DMSO-d6/CD3CN; for selectivity for HS^− over Cl^−: 1H NMR titration data
Experimental: To investigate whether HS^− is a suitable anionic guest for compounds 1-3, we titrated NBu4SH into 0.5-1.0 mM solution of each host in 10% DMSO-d6/CD3CN and monitored the titrations by ^1H NMR spectroscopy. […] For example, upon addition of HS^− to a 0.988 mM solution of 1, the aryl CHa shifted from 7.99 to 9.24 ppm, and the NHb and NHc urea protons shift downfield from 7.94 and 8.92 to 8.63 and 11.18 ppm, respectively. […] We also confirmed that the observed changes in the NMR spectra upon HS^− addition were not merely due to deprotonation of the urea NH groups. […] Titration data of HS^− with the host fit to simple 1:1 binding isotherm models, and a new, upfield-shifted peak appears for bound hydrosulfide.
(§1) The higher selectivity is likely due to the pyridine lone pair acting as a hydrogen bond acceptor, which provides an additional stabilizing interaction for HS^− and a destabilizing interaction for Cl^−. The phenyl core of host 1 donates a hydrogen bond to both anionic guests, resulting in decreased selectivity for hydrosulfide, even if this CH hydrogen bond is an important component to the high overall binding energy.

[2] = 1H NMR comparison titration with NBu4Cl (Cl^− binding); settings: 10% DMSO-d6/CD3CN
From the text: as §1

[3] = UV-Vis titration with NBu4SH in MeCN (HS^− binding); settings: for HS^− binding constant: no DMSO co-solvent, 10 μM host
Experimental: (§2) To further investigate the difference in anion selectivity, binding constants were also measured at lower concentrations by UV-Vis spectroscopy in MeCN; the data are summarized in Table 1.
We expected that removal of the DMSO co-solvent would increase the observed binding affinities since acetonitrile is a slightly less competitive solvent (especially as a hydrogen bond acceptor).

[4] = UV-Vis titration with NBu4Cl in MeCN (Cl^− binding)
Experimental: as §2

[5] = 13C{1H} NMR check of alkyne reactivity toward HS^−; type: physicochemical; settings: 2.3 mM host, 10 equivalents of HS^−
[6] = Reversibility of HS^− binding (NBu4SH then Zn(OAc)2, 1H NMR); settings: hydrogen-bond binding; for 1: 1.0 mM in 10% DMSO-d6/CD3CN, 2 equiv NBu4SH, 4 equiv Zn(OAc)2, 5 more equiv NBu4SH

Row | HS^− ΔG [1] | selectivity for HS^− over Cl^− [1] | Cl^− ΔG [2] | HS^− ΔG [3] | HS^− binding constant ([3]; UV-Vis) | Cl^− ΔG [4] | reactivity of host alkynes toward HS^− [5] | reversibility of HS^− binding [6] | SMILES | selectivity HS^−:Cl^− ([3]; UV-Vis)
1 | -21.1 kJ/mol | 2.8 fold | -18.5 kJ/mol | -28.3 kJ/mol | 90,300 M^−1 | -25.9 kJ/mol | alkynes were unreactive toward HS^− | confirming the reversibility of binding | COc1ccc(NC(=O)Nc2ccc(C(C)(C)C)cc2C#Cc2cccc(C#Cc3cc(C(C)(C)C)ccc3NC(=O)Nc3ccc(OC)cc3)c2)cc1 [Host 1] | remained similar to the 10% DMSO-d6/CD3CN system
2 | -17.4 kJ/mol | 6 fold | -13.3 kJ/mol | -24.5 kJ/mol | ~25,000 M^−1 | -18.2 kJ/mol |  |  | COc1ccc(NC(=O)Nc2ccc(C(C)(C)C)cc2C#Cc2cccc(C#Cc3cc(C(C)(C)C)ccc3NC(=O)Nc3ccc(OC)cc3)n2)cc1 [Host 2] | 
3 | -17.8 kJ/mol | 6 fold | -13.3 kJ/mol | -25.4 kJ/mol | ~25,000 M^−1 | -17.6 kJ/mol |  |  | CC(C)(C)c1ccc(NC(=O)Nc2ccccc2)c(C#Cc2cccc(C#Cc3cc(C(C)(C)C)ccc3NC(=O)Nc3ccccc3)n2)c1 [Host 3] | 
